Experimental data: ChEMBL document CHEMBL3045898, “Antioxidant phenolic compounds and flavonoids of Mitragyna rotundifolia (Roxb.) Kuntze in vitro” (Med Chem Res, 2010)
Values after ≈ are worked out from the molar mass of the structure shown.

What was measured:
[1] = system: Radical scavenging activity; assay: Antioxidant activity assessed as inhibition of DPPH radical production after 30 min by spectrophotometric analysis; type: functional
[2] = Antioxidant activity assessed as inhibition of ABTS radical production after 10 min by spectrophotometric analysis; type: functional

Row | IC50 [1] | IC50 [2] | Compound
1 | 0.94 µg/mL (≈ 4.43 µM) | 0.885 µg/mL (≈ 4.17 µM) | CCCOC(=O)c1cc(O)c(O)c(O)c1 [PROPYL GALLATE]
2 | ND(Insoluble) | 2.47 µg/mL (≈ 16 µM) | O=C(O)c1ccc(O)c(O)c1 [PROTOCATECHUIC ACID]
3 | 1.4 µg/mL (≈ 4.82 µM) | 0.56 µg/mL (≈ 1.93 µM) | Oc1cc(O)c2c(c1)O[C@H](c1ccc(O)c(O)c1)[C@@H](O)C2 [CIANIDANOL]
4 | 2.51 µg/mL (≈ 8.77 µM) | 1.03 µg/mL (≈ 3.6 µM) | O=c1c(O)c(-c2ccc(O)cc2)oc2cc(O)cc(O)c12 [KAEMPFEROL]

Continued, molecule first:

Row | Compound | IC50 [1] | IC50 [2]
5 | O=C(O)/C=C/c1ccc(O)c(O)c1 [CAFFEIC ACID] | 1.8 µg/mL (≈ 9.99 µM) | 1.54 µg/mL (≈ 8.55 µM)
6 | Cc1cc(C(C)(C)C)c(O)c(C(C)(C)C)c1 [BUTYLATED HYDROXYTOLUENE] | 18.79 µg/mL (≈ 85.3 µM) | 4.555 µg/mL (≈ 20.7 µM)
7 | COc1c(O)cc([C@H]2Oc3cc(O)cc(O)c3C[C@@H]2O)cc1O [4'-O-METHYL-GALLOCATECHIN] | 2.57 µg/mL (≈ 8.02 µM) | 0.78 µg/mL (≈ 2.44 µM)
8 | Oc1cc(O)c2c(c1)O[C@H](c1ccc(O)c(O)c1)[C@H](O)C2 [(-)-EPICATECHIN] | 1.61 µg/mL (≈ 5.55 µM) | 1.83 µg/mL (≈ 6.3 µM)
